Measurements from patent US20250213593A1, “Use of Derivatives based on Sarsasapogenin Structure and Pharmaceutical Compositions thereof” (BEIJING PHYTOVENT PHARMACEUTICAL TECHNOLOGY CO., LTD., priority 2022, published 2025).
Entries after “also recorded” stand apart in the source; their conditions may differ. Marks after values point to notes of the source that are not given here.

What was measured:
[1] = system: transgenic neutrophil fluorescent zebrafishes; assay: Anti-inflammatory effect on LPS-induced inflammatory zebrafish; assay type: in vivo; conditions: 80 μM; for Number of neutrophils (mean ± SE): 3 h, n = 10, model control 18, normal control 3
Protocol: LPS was used to treat normal 3 dpf transgenic neutrophil fluorescent zebrafishes in a yolk sac injection, and a zebrafish inflammation model was established.
Transgenic neutrophil fluorescent zebrafishes (3 dpf), well developed and consistent in stage on 3 days after fertilization, were picked under a microscope and placed in a six-well plate, with 30 zebrafishes being randomly picked for each well at a capacity of 3 mL in each well. A zebrafish inflammation model was established by administrating LPS in a yolk sac injection. “Embodiment 5” and “Embodiment 6” were respectively dissolved with water, wherein the concentrations were 0.28 μM, 0.83 μM and 2.5 μM, respectively. The concentration of indomethacin was 80 μM. Meanwhile, a normal control group (i.e., zebrafishes were treated with fish-farming water) and a model control group were set, and incubated in a 28° C. incubator for 3 h. 10 zebrafishes were randomly selected from each group, and observed and photographed under a fluorescence microscope, and the photos were saved. Nikon NIS-Elements D 3.10 advanced image processing software was used for image analysis, the number (N) of inflammatory neutrophils in zebrafish was calculated, and the statistical processing results were expressed as mean±SE. The statistical analysis results of the number of inflammatory neutrophils in zebrafish were used to evaluate whether “Embodiment 5” and “Embodiment 6” had significant anti-inflammatory effects on LPS-induced inflammatory zebrafish, respectively. A formula for calculating the anti-inflammatory effects of “Embodiment 5” and “Embodiment 6” was as follows: […]

[2] = system: mice with ulcerative colitis induced by 3.0% DSS; assay: DSS mouse enteritis model; assay type: in vivo
From the text: 60 mice in good health were divided into 6 groups according to body weight, with 10 mice in each group: a normal control group, a model group, a positive drug group, and groups of different test products (Embodiment 13B, Embodiment 33, and Embodiment 34, at a dosage of 80 mpk each). In addition to the normal control group, the mice in other groups were administrated with a 3.0% DSS solution to drink freely, and consecutively modeled for 8 days. The normal control group was administrated with autoclaved filtered water to drink freely. The drug was administered on the day of modeling, and a test product was administered by oral gavage according to a designed dosage, once a day for 9 consecutive days. […] On the next day after the last administration, after deep anesthesia with CO2, cardiac blood and plasma were collected, and cryopreserved at −80° C. Subsequently, the abdominal cavity was dissected, the liver was removed and cryopreserved at −80° C. Finally, the entire colon tissue was removed, the colon length was measured, photographs were taken, and the colon content was washed with normal saline after dissection along the mesenteric side and weighed.

[3] = system: rats with ulcerative colitis induced by TNBS; assay: TNBS rats enteritis model; assay type: in vivo, rat; conditions: 80 mpk oral gavage once a day, 7 days
Protocol: All rats except the normal control group were fasted for solids (not liquids) for 24 h. After being anesthetized with isoflurane, the rats were transrectally infused with a TNBS ethanol solution (18 mg TNBS/mouse) at 0.5 mL/mouse through a latex hose, the length of the hose into the rectum was about 8 cm, an anesthesia state was continued after the hose was withdrawn, and the rats were kept in an inclined state for 15 min. The rats in the normal control group were not stimulated with rectal cannula. After the animals were awake, they were randomly divided into groups, which then began to be administrated with drugs (marked as D1). The blank group and the model group were administrated with the same amount of vehicle by oral gavage once a day for 7 consecutive days (D1-D7). The animal's status and feces (loose stools or bloody stools) were observed every day. The body weights were monitored. On the next day after the last administration (D8), the animals were deeply anesthetized with CO2, sacrificed and dissected. The entire colon tissues were harvested. The colon content was washed with normal saline after dissection along the mesenteric side. The body weights were measured and the colon lengths were measured. A ulcer surface was measured by Image J software. The general conditions of the colons were observed and photographed. Some of diseased tissues were fixed with formalin, and subjected to histopathological observation by HE staining. • Results: (1) the effects on general conditions of TNBS colitis mice were shown in FIG. 46a: the rats had loose stool on the next day of TNBS modeling; and the modeled mice had symptoms of reduced diet, tiredness, emaciation, erect hair, and dull hair. The feces of some rats were improved in the later stage of administration, but some rats still maintained loose stool until the end of the experiment, and some rats had obvious abdominal distension in the later stage of the experiment.

[4] = system: human SHSY5Y neural tumor cells; assay: H2O2-induced oxidative damage of SHSY5Y cells (MTT); assay type: cell-based; conditions: 1 μM, pre-protected 24 h, 250 μM H2O2 24 h
hippocampal neurons = assay: L-cysteine-induced neuronal excitotoxicity; assay type: cell-based, SD rats; conditions: for protective effects on L-Cystine (400 μM)-induced neuronal excitotoxicity: compound 1 μM, 24 h before inducer
Protocol: Experimental and analytical method: before the experiment, a 24-well cell culture plate was pretreated with Poly-D-lysine and placed in a cell incubator at 37° C. and 5% CO2 overnight. SD rats, 18 days pregnant, were ordered, brains of fetal rats (E18-19) were dissected, and hippocampal neurons in the brains were subjected to primary culture in a neuronal medium using a 24-well plate, and then cultured by a serum-free medium. The hippocampal neurons were cultured in a cell incubator at 37° C., 5% CO2 for 19 days (DIV19), then added with a compound to be tested (a final concentration of 1 μM) and a positive control AP5 [(2R)-amino-5-phosphonopentanoic acid(phosphonatopentanoate)] (a final concentration of 100 μM), cultured for 24 h, and then added with L-Cystine (400 μM) and NaHCO3 (10 mM). After 18 h, Hoechst3342 (2.5 μg/ml) was added for cell staining. The cells were placed in the incubator and cultured for 15 min, and photographed using the high-content fluorescence microscope, wherein 6 random non-overlapping fields were photographed for each duplicate well, and the total number of neurons and the number of dead neurons were counted with software Image J. The obtained data was used to determine whether there was a difference between a drug treatment group and a control group.
Compound treatment: 32 small molecule compounds in Embodiment 1 to Embodiment 19A were diluted with DMSO to a 1 mM mother solution; and 1 μL of mother solution was added to 1 ml of culture solution per well in a 24-well plate to a final concentration of 1 μM, wherein a positive control compound was […] of AP5 (100 mM mother solution), and a negative control was 1 μl of DMSO.

[5] = system: C57BL/6J mice, LPS-induced peripheral and central inflammation; assay: LPS-induced peripheral and central inflammation mouse model; assay type: in vivo; conditions: 30 mg/kg p.o. QD*3
Protocol: Modeling method: LPS (2 mg/kg, i.p., QD) was injected on Day 1, Day 2 and Day 3 to induce peripheral and central inflammations of mice. An ND drug test group was subjected to administration pre-protection (ND 30 mg/kg, p.o., QD) 2 h before LPS injection. After the experiment, plasma and brain tissues of the mice were collected for inflammatory factors, peroxidation factors and other indicators.
• Serum: after the mice were anesthetized with 1% sodium pentobarbital, the eyeballs were harvested, the blood was taken and placed in an EP tube, and then centrifuged at low temperature after standing at 4° C. for 1 h, and a supernatant was taken, and frozen quickly in liquid nitrogen. • Hippocampal tissues: the mice were anesthetized with 1% sodium pentobarbital and then subjected to cardiac perfusion with cold PBS, brains were harvested, and tissues were taken on ice and frozen quickly in an EP tube with liquid nitrogen.
Cryopreserved plasma was taken, and an reactive oxygen detection kit, a hydrogen peroxide detection kit and a nitric oxide detection kit were used to detect various indicators. The specific operation processes were the same as the instruction of each kit.
The cryopreserved hippocampal tissues were taken, added with a RIPA tissue lysate containing a protease inhibitor, fully homogenized and cleaved. A supernatant was taken after low-temperature centrifugation. The protein quantification was performed by a BCA protein quantification kit. Tissue samples were adjusted to a unified protein concentration. An reactive oxygen detection kit, a hydrogen peroxide detection kit and a nitric oxide detection kit were used to detect various indicators.
Cryopreserved plasma was taken, and IL-1β, IL-6 and IL-10 kits were used to detect various indicators. The specific operation processes were the same as the instruction of each kit.
A hippocampal tissue supernatant was taken, and IL-1β, IL-6 and IL-10 kits were used to detect various indicators. The specific operation processes were the same as the instruction of each kit.
Experimental results were expressed as “mean±standard deviation”. One-way ANOVA was used to compare the data of each group to determine whether there was a statistical difference between the groups.

[6] = 80 mpk oral gavage once a day, 9 days

## COc1ccc2c(c1)c(CC(=O)O)c(C)n2C(=O)c1ccc(Cl)cc1 [indomethacin, Indomethacin, reference compound]
[1]
  Inflammation resolution (%) / anti-inflammatory effect: 67%
  Number of neutrophils (mean ± SE): 6
[1]; listed as Indomethacin
  Number of neutrophils (mean ± SE): 6 ± 0.31
  Inflammation resolution (%) / anti-inflammatory effect: 67*** %
[1]; P<0.001 vs model control
  anti-inflammatory effect on inflammatory zebrafish (in words): obvious anti-inflammatory effect

## CC(C)CN1CCN(C2CCN(C(=O)CC(=O)NC3CC[C@]4(C)C5CC[C@]6(C)[C@@H]7[C@H](C[C@H]6[C@@H]5CC[C@@H]4C3)O[C@]3(CC[C@H](C)CO3)[C@H]7C)CC2)CC1 (stereo partly shown) [Embodiment 33]
[2]; [6]
  colon length: could increase the weights and lengths of the colons
  colon weight: could increase the weights and lengths of the colons
  general conditions of DSS colitis mice: certain improvement effects

## C[C@H]1CC[C@@]2(OC1)O[C@H]1C[C@H]3[C@@H]4CC[C@@H]5CC(NC(=O)CC(=O)N6CCN(C7CCN(CCF)CC7)CC6)CC[C@]5(C)C4CC[C@]3(C)[C@H]1[C@@H]2C (stereo partly shown) [Embodiment 36]
[3]
  colon ulcer area: could reduce
  colon weight per unit length (colon weight/colon length): could reduce

## C[C@H]1CC[C@@]2(OC1)OC1CC3C4CC[C@@H]5C[C@@H](NC(=O)CC(=O)NCCO)CC[C@]5(C)C4CC[C@]3(C)C1[C@@H]2C (stereo partly shown) [Embodiment 14A]
[4]
  protection of H2O2-induced neural tumor cell damages: significantly protected

## C[C@H]1CC[C@@]2(OC1)O[C@H]1C[C@@H]3[C@H](CC[C@H]4[C@H]3CC[C@@H]3CC(NC(=O)CC(=O)NCC5CCN(C)CC5)CC[C@@]34C)[C@H]1[C@@H]2C (stereo partly shown) [Embodiment 7]
[4]
  protection of H2O2-induced neural tumor cell damages: significantly protected

## CC(C)N1CCC(N2CCN(C(=O)CC(=O)NC3CC[C@]4(C)C5CC[C@]6(C)[C@@H]7[C@H](C[C@H]6[C@@H]5CC[C@@H]4C3)O[C@]3(CC[C@H](C)CO3)[C@H]7C)CC2)CC1 (stereo partly shown) [Embodiment 34]
[2]; [6]
  colon length: could increase the weights and lengths of the colons
  colon weight: could increase the weights and lengths of the colons
  general conditions of DSS colitis mice: certain improvement effects

## N[C@H](CCCP(=O)(O)O)C(=O)O [AP5, (2R)-amino-5-phosphonopentanoic acid(phosphonatopentanoate), reference compound]
Hippocampal neurons; AP5 100 μM
  protective effect on the neuronal excitotoxicity: very significant protective effect
Hippocampal neurons; AP5 100 μM, L-Cystine 400 μM + NaHCO3 10 mM, without inducer 20.12%, DMSO 87.62%
  proportion of dead cells: 27.58%

## C[C@H]1CC[C@@]2(OC1)O[C@H]1C[C@H]3[C@@H]4CC[C@@H]5CC(NC(=O)CC(=O)N6CCN(C(=O)CN(C)C)CC6)CC[C@]5(C)C4CC[C@]3(C)[C@H]1[C@@H]2C (stereo partly shown) [Embodiment 37]
[3]
  colon ulcer area: could reduce
  colon weight per unit length (colon weight/colon length): could reduce

## C[C@H]1CC[C@@]2(OC1)O[C@H]1C[C@H]3[C@@H]4CC[C@@H]5CC(NC(=O)CC(=O)N6CCNCC6)CC[C@]5(C)[C@H]4CC[C@]3(C)[C@H]1[C@@H]2C (stereo partly shown) [Embodiment 10]
Hippocampal neurons
  protective effects on L-Cystine (400 μM)-induced neuronal excitotoxicity: protective effects

## C[C@H]1CC[C@@]2(OC1)O[C@H]1C[C@H]3[C@@H]4CC[C@@H]5CC(NC(=O)CCN6CCN(C)CC6)CC[C@]5(C)[C@H]4CC[C@]3(C)[C@H]1[C@@H]2C (stereo partly shown) [Embodiment 1]
Hippocampal neurons
  protective effects on L-Cystine (400 μM)-induced neuronal excitotoxicity: protective effects

## C[C@@H]1CC[C@@]2(OC1)OC1CC3C4CC[C@H]5C[C@@H](NC(=O)CCN(C)C)CC[C@]5(C)C4CC(=O)[C@]3(C)C1[C@@H]2C (stereo partly shown) [Embodiment 20A]
[5]
  IL-10 in hippocampus: only affected
  IL-10 in serum: only affected
  anti-inflammatory effect (in words): obvious anti-inflammatory effect; also recorded: good anti-inflammatory effect
  antioxidant effect (in words): good antioxidant effect
[5]; vs LPS group
  H2O2 concentration in serum: significantly improved
  NO concentration in serum: significantly improved
  ROS level in serum: significantly improved

## C[C@H]1CC[C@@]2(OC1)O[C@H]1C[C@H]3[C@@H]4CC[C@@H]5C[C@H](NC(=O)CCN(C)C)CC[C@]5(C)[C@H]4CC[C@]3(C)[C@H]1[C@@H]2C [Embodiment 4B]
Hippocampal neurons
  protective effects on L-Cystine (400 μM)-induced neuronal excitotoxicity: protective effects

## O=C(O)c1cc(/N=N/c2ccc(S(=O)(=O)Nc3ccccn3)cc2)ccc1O [SASP, reference compound]
[2]; 720 mg/kg positive drug
  colon atrophy: could inhibit colon atrophy
  general conditions of DSS colitis mice: certain improvement effects
